The numbers were not newly measured in US20090062246A1, “THERAPEUTIC TREATMENT-014” (ASTRAZENECA AB, priority 2007, published 2009), which cites them from elsewhere.

The data set deals with T1, ETB receptor (Homo sapiens, UniProt P24530).
T1 sequence (P24530 27-442): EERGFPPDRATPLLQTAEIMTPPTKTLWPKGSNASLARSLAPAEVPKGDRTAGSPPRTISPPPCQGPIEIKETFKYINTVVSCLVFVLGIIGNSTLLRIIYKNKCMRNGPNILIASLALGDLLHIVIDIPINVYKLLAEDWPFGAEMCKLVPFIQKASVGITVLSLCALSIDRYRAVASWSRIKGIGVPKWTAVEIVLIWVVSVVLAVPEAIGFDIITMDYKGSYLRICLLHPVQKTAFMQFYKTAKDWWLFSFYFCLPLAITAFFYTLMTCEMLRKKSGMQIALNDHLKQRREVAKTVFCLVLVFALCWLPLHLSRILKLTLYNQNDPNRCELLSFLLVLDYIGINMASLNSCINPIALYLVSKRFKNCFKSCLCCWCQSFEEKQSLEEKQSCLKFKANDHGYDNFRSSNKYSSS
Particulars: described in WO04/018044.

As for `COc1nc(C)cnc1NS(=O)(=O)c1cccnc1-c1ccc(-c2nnco2)cc1` [Compound (I), N-(3-methoxy-5-methylpyrazin-2-yl)-2-(4-[1,3,4-oxadiazol-2-yl]phenyl)pyridine-3-sulphonamide], the “affinity for the ETB receptor” value was “no measurable affinity”.
